Experimental data taken from patent US7547548B2, “Method for producing direct in vitro flowering and viable seed from cotyledon, radicle, and leaf explants, and plants produced therefrom” (University of Toledo, priority 2004, dated 2009).

Columns and labels:
[1] = test system: cotyledon; assay: Shoot, fertile flower and viable seed production from in vitro developed shoots from cotyledon; assay type: cell-based, soybean; settings: BAP 3.0 mg/L without TDZ
Method: In this method, the isolated cotyledons from the germinated seed are plated on a cotyledon-shoot-flowering medium (which is another embodiment of the invention and is described below). A cotyledon-shoot flowering medium preferably comprises a cytokinin or mixtures thereof, such as BAP or combinations of cytokinins and a substituted phenylurea cytokinin analog such as TDZ or mixtures thereof. If desired, the cotyledon may be transformed at this time with any suitable technique known in the art. Preferably the abaxial side of the cotyledon is placed in contact with a cotyledon-shoot-flowering medium. Cultures are incubated at 24×2° C. under a 16/8-hour dark photoperiod provided by cool-white fluorescent lights at a quantum flux density of 30 μmol s^−1m^−2. Following a passage of time, typically, within four to six weeks, shoot initiation occurs on a cotyledon having been placed on a cotyledon-shoot-flowering medium. The shoot continues to grow and develop a flower bud within two to four weeks after shoot initiation. The explant is maintained on a cotyledon-shoot flowering medium for about 15 days and then transferred to MSB5 medium. Healthy soybean seeds are hand picked and washed with a few drops of soap (Linquinox, Fischer scientific, Pittsburgh, Pa.) for 10 minutes in running tap water. […]

[2] = test system: cotyledonary explant; assay: Direct flower bud induction on cotyledon explants on MSB5 medium with growth regulators; assay type: cell-based, soybean
Method: Preferably before germination, the seeds are washed in running tap water with a drop of soap for 15 mins and sterilized with 70% ethyl alcohol for 1 min followed by a 10 minute treatment with 0.1% mercuric chloride and washed three times for 5 min intervals with sterile distilled water. Six seeds are germinated in each petriplate with MSB5 medium After germination on a MSB5 for a period of time, such as 3 days in the dark at 24±2° C., both the cotyledons are split and the radicle and embryo are removed. The isolated cotyledons from the seed are plated on cotyledon-flowering medium (which is another embodiment of the invention and is described in detail below). The cotyledon-flowering medium preferably comprises a substituted phenylurea cytokinin analog, such as TDZ and a cytokinin such as BAP.
If desired, the cotyledon may be transformed at this time with any suitable technique known in the art. Preferably the abaxial side of a cotyledon is placed in contact with a cotyledon-flowering medium. Cultures are incubated at 24±2° C. under a 16/8-hour […] photoperiod provided by cool-white fluorescent lights at a quantum flux density of 30 μmol s^−1m^−2.
Following a passage of time, typically within 3 weeks, flower bud initiation occurs on a cotyledon having been placed on a cotyledon-flowering medium. After about 3 weeks, cotyledons are transferred to MSB5 medium. The flower bud continues to grow on MSB5 medium to develop and produce viable seeds. During this time, cultures are incubated with necessary light-dark photoperiodic conditions to promote growth and to mimic natural growing conditions. Additionally, over time it may be necessary to subculture the explants with fresh MSB5 medium. See example 1 and FIGS, 1a-1d for direct viable-seed producing flower bud initiation on a soybean cotyledon.
Healthy soybean seeds are hand picked and washed with a few drops of soap (Linquinox, Fischer scientific, Pittsburgh, Pa.) for 10 minutes in running tap water. The seeds are then sterilized in 70% ethyl alcohol for 1 min and treated with 0.1% (w/v) mercuric chloride for 10 min. Sterilized seeds are again washed for three times at five minute intervals with sterilized distilled water, and plated six seed on each petri plate containing 20 ml of MSB5 medium. Three-day-old aseptic seedlings are used as the source material for explant preparation. Six isolated cotyledons are plated on each culture plate in such a way that the abaxial side in contact with the medium. MSB5 medium supplemented with different concentrations of TDZ (0.1, 0.5, 1.0, 2.0 and 5.0 mg/L) either alone, or in combination, with BAP (1.0-4.0 mg/L) are tested for flower induction. The media is augmented with 3% (w/v) sucrose and solidified with 0.56% agar (Phytotech Labs). The pH of the medium is adjusted to 5.8 with 0.1M NaOH or 0.1M HCl before autoclaving at 1.4 kg cm^−2 for 20 min at 121° C. The cultures are incubated in light-dark (16-8 hrs) photoperiodic conditions of cool-white-fluorescent light providing a quantum flux density of […] at 25±2° C. Explants with or without multiple flower buds are subcultured regularly at 20 days interval to fresh medium. Within 15 days of culture initiation, the bulging of cotyledons and induction of deep greenish unorganized structures from the proximal end is noticed.

[3] = test system: Leaf segments from a petunia; assay: In vitro flowering from leaf explant of petunia; assay type: cell-based; settings: MS basal medium, TDZ 0.1, 0.5, 1.0, 2.0 and 5.0 mg/L alone; 4 weeks
Method: Leaf segments from a petunia were sterilized using the sterilization procedures described above and placed on MS basal medium supplemented with different concentrations of TDZ (0.1, 0.5, 1.0, 2.0 and 5.0 mg/L) either alone or in combination with BAP (3.0 mg/L) or on a MS basal medium with no hormones. […] A large number of flowers were induced on MS basal medium. FIG. 7 is a photograph showing in vitro flowering in a petunia.

## c1ccc(CNc2ncnc3nc[nH]c23)cc1 [BAP, 6-benzylamino purine]
[1]
  frequency of shoots, fertile flowers and viable seeds: high frequency of shoots with low frequency of fertile flowers and viable seeds
[2]; 3.0 mg/1 BAP
  developmental outcome produced by cotyledon explants: only shoots

## O=C(Nc1ccccc1)Nc1cnns1 [TDZ, 1-phenyl-3-(1,2,3-thiadiazol-5-yl)urea]
[3]
  flower bud induction: Multiple flower buds were induced
[2]; TDZ 5.0 mg/L
  flower induction and shoot induction: neither flower induction nor shoot induction was noticed
[2]; TDZ 1.0-2.0 mg/L without BAP
  flower production on cotyledonary explants: produces flowers on cotyledonary explants
[2]; TDZ below 1.0 mg/L
  number and frequency of flowers induced: fewer number of flowers and less frequently
[2]; medium containing only 1.0 to 2.0 mg/L TDZ
  appearance of induced flowers: short, vitrified and abnormal
